# Values quoted from earlier work, collected in PubChem BioAssay AID1259409 (Chemical Carcinogenesis Research Information System (CCRIS), 2018).
# Test system: rodent chemically induced tumor inhibition, incidence and multiplicity
# Assay: CCRIS tumor inhibitor studies
compound,measurement,setting,value
NC(=O)c1cccc(N)c1,outcome,"Carcinogen: N-NITROSOBIS(2-HYDROXYPROPYL)AMINE, 53609-64-6, Dose [Inhibitor]: 0, 300 MG/KG 30 MIN AFTER EACH CARCINOGEN DOSE (STUDY DURATION: 35 WK), Route [Inhibitor]: INTRAPERITONEAL, Species: HAMSTER, Strain/Sex: SYRIAN/MALE, Target Tissue: Type of Lesion: BILE DUCT: CHOLANGIOCARCINOMA, Dose [Carcinogen]: 500 MG/KG IN 0.9% SALINE 1/WK FOR 5 WK, Promoter: NONE USED","0%, 7%"
same,outcome,"Carcinogen: N-NITROSOBIS(2-HYDROXYPROPYL)AMINE, 53609-64-6, Dose [Inhibitor]: 0, 300 MG/KG 30 MIN AFTER EACH CARCINOGEN DOSE (STUDY DURATION: 35 WK), Route [Inhibitor]: INTRAPERITONEAL, Species: HAMSTER, Strain/Sex: SYRIAN/MALE, Target Tissue: Type of Lesion: LIVER: HEPATOCELLULAR CARCINOMA, Dose [Carcinogen]: 500 MG/KG IN 0.9% SALINE 1/WK FOR 5 WK, Promoter: NONE USED","0%, 7%"
same,"tumour outcome (control, treated, inhibition, significance)","Carcinogen: N-NITROSOBIS(2-HYDROXYPROPYL)AMINE, 53609-64-6, Dose [Inhibitor]: 0, 300 MG/KG 30 MIN AFTER EACH CARCINOGEN DOSE (STUDY DURATION: 35 WK), Route [Inhibitor]: INTRAPERITONEAL, Species: HAMSTER, Strain/Sex: SYRIAN/MALE, Target Tissue: Type of Lesion: LUNG: ADENOCARCINOMA, Dose [Carcinogen]: 500 MG/KG IN 0.9% SALINE 1/WK FOR 5 WK, Promoter: NONE USED","8%, 0%, 100%, not calculated"
same,outcome,"Carcinogen: N-NITROSOBIS(2-HYDROXYPROPYL)AMINE, 53609-64-6, Dose [Inhibitor]: 0, 300 MG/KG 30 MIN AFTER EACH CARCINOGEN DOSE (STUDY DURATION: 35 WK), Route [Inhibitor]: INTRAPERITONEAL, Species: HAMSTER, Strain/Sex: SYRIAN/MALE, Target Tissue: Type of Lesion: LUNG: ADENOMA, Dose [Carcinogen]: 500 MG/KG IN 0.9% SALINE 1/WK FOR 5 WK, Promoter: NONE USED","0%, 7%"
same,"tumour outcome (control, treated, inhibition, significance)","Carcinogen: N-NITROSOBIS(2-HYDROXYPROPYL)AMINE, 53609-64-6, Dose [Inhibitor]: 0, 300 MG/KG 30 MIN AFTER EACH CARCINOGEN DOSE (STUDY DURATION: 35 WK), Route [Inhibitor]: INTRAPERITONEAL, Species: HAMSTER, Strain/Sex: SYRIAN/MALE, Target Tissue: Type of Lesion: PANCREAS: CARCINOMA, Dose [Carcinogen]: 500 MG/KG IN 0.9% SALINE 1/WK FOR 5 WK, Promoter: NONE USED","39%, 40%, -3%, not calculated"
same,outcome,"Carcinogen: N-NITROSOBIS(2-HYDROXYPROPYL)AMINE, 53609-64-6, Dose [Inhibitor]: 0, 600 MG/KG 30 MIN AFTER EACH CARCINOGEN DOSE (STUDY DURATION: 35 WK), Route [Inhibitor]: INTRAPERITONEAL, Species: HAMSTER, Strain/Sex: SYRIAN/MALE, Target Tissue: Type of Lesion: LIVER: HEPATOCELLULAR CARCINOMA, Dose [Carcinogen]: 500 MG/KG IN 0.9% SALINE 1/WK FOR 5 WK, Promoter: NONE USED","0%, 5%"
same,"tumour outcome (control, treated, inhibition, significance)","Carcinogen: N-NITROSOBIS(2-HYDROXYPROPYL)AMINE, 53609-64-6, Dose [Inhibitor]: 0, 600 MG/KG 30 MIN AFTER EACH CARCINOGEN DOSE (STUDY DURATION: 35 WK), Route [Inhibitor]: INTRAPERITONEAL, Species: HAMSTER, Strain/Sex: SYRIAN/MALE, Target Tissue: Type of Lesion: LUNG: ADENOCARCINOMA, Dose [Carcinogen]: 500 MG/KG IN 0.9% SALINE 1/WK FOR 5 WK, Promoter: NONE USED","8%, 0%, 100%, not calculated"
same,outcome,"Carcinogen: N-NITROSOBIS(2-HYDROXYPROPYL)AMINE, 53609-64-6, Dose [Inhibitor]: 0, 600 MG/KG 30 MIN AFTER EACH CARCINOGEN DOSE (STUDY DURATION: 35 WK), Route [Inhibitor]: INTRAPERITONEAL, Species: HAMSTER, Strain/Sex: SYRIAN/MALE, Target Tissue: Type of Lesion: LUNG: ADENOMA, Dose [Carcinogen]: 500 MG/KG IN 0.9% SALINE 1/WK FOR 5 WK, Promoter: NONE USED","0%, 5%"
same,"tumour outcome (control, treated, inhibition, significance)","Carcinogen: N-NITROSOBIS(2-HYDROXYPROPYL)AMINE, 53609-64-6, Dose [Inhibitor]: 0, 600 MG/KG 30 MIN AFTER EACH CARCINOGEN DOSE (STUDY DURATION: 35 WK), Route [Inhibitor]: INTRAPERITONEAL, Species: HAMSTER, Strain/Sex: SYRIAN/MALE, Target Tissue: Type of Lesion: PANCREAS: CARCINOMA, Dose [Carcinogen]: 500 MG/KG IN 0.9% SALINE 1/WK FOR 5 WK, Promoter: NONE USED","39%, 25%, 36%, not calculated"
O=C(/C=C/c1ccc(O)c(O)c1)O[C@@H]1C[C@](O)(C(=O)O)C[C@@H](O)[C@H]1O,"tumour outcome (control, treated, inhibition, significance)","Carcinogen: 4-NITROQUINOLINE-1-OXIDE, 56-57-5, Dose [Inhibitor]: 0, 250 PPM IN DIET FOR 7 WK BEGINNING 1 WK PRIOR TO START OF CARCINOGEN TREATMENT (STUDY DURATION: 32 WK), Route [Inhibitor]: ORAL, Species: RAT, Strain/Sex: F344/MALE, Target Tissue: Type of Lesion: TONGUE: PAPILLOMA, Dose [Carcinogen]: 20 PPM IN DRINKING WATER FOR 5 WK, Promoter: NONE USED","1/15 (7%), 1/15 (7%), 0%, not significant"
same,"tumour outcome (control, treated, inhibition, significance)","Carcinogen: 7,12-DIMETHYLBENZ[A]ANTHRACENE, 57-97-6, Dose [Inhibitor]: 10 UMOL IN 200 µL ACETONE/DMSO (90:10) 2/WK FOR 19 WK BEGINNING 1 WK POST CARCINOGEN DOSE (STUDY DURATION: 20 WK), Route [Inhibitor]: DERMAL, Species: MOUSE, Strain/Sex: CD-1/FEMALE, Target Tissue: Type of Lesion: SKIN: PAPILLOMA, Dose [Carcinogen]: 200 NMOL IN 200 µL ACETONE ONCE, Promoter: 12-O-TETRADECANOYLPHORBOL-13-ACETATE, 16561-29-8","68%, 47%, 31%, not calculated"
same,"tumour outcome (control, treated, inhibition, significance)","Carcinogen: 7,12-DIMETHYLBENZ[A]ANTHRACENE, 57-97-6, Dose [Inhibitor]: 20 UMOL IN 200 µL ACETONE/DMSO (90:10) 2/WK FOR 19 WK BEGINNING 1 WK POST CARCINOGEN DOSE (STUDY DURATION: 20 WK), Route [Inhibitor]: DERMAL, Species: MOUSE, Strain/Sex: CD-1/FEMALE, Target Tissue: Type of Lesion: SKIN: PAPILLOMA, Dose [Carcinogen]: 200 NMOL IN 200 µL ACETONE ONCE, Promoter: 12-O-TETRADECANOYLPHORBOL-13-ACETATE, 16561-29-8","68%, 27%, 60%, not calculated"
same,"tumour outcome (control, treated, inhibition, significance)","Carcinogen: N-METHYL-N-NITROSOUREA [684-93-5], Dose [Inhibitor]: 250 PPM IN DIET FOR 22 WK BEGINNING 1 WK POST LAST CARCINOGEN DOSE (STUDY DURATION: 35 WK), Route [Inhibitor]: ORAL, Species: RAT, Strain/Sex: F344/MALE, Target Tissue: Type of Lesion: GLANDULAR STOMACH: ADENOCARCINOMA, Dose [Carcinogen]: 400 PPM IN DRINKING WATER FOR 12 WK (STUDY DURATION: 35 WK), Promoter: NONE","12/20 (60.0%), 4/17 (23.5%), 61%, p<0.03"
same,"tumour outcome (control, treated, inhibition, significance)","Carcinogen: N-METHYL-N-NITROSOUREA [684-93-5], Dose [Inhibitor]: 500 PPM IN DIET FOR 22 WK BEGINNING 1 WK POST LAST CARCINOGEN DOSE (STUDY DURATION: 35 WK), Route [Inhibitor]: ORAL, Species: RAT, Strain/Sex: F344/MALE, Target Tissue: Type of Lesion: GLANDULAR STOMACH: ADENOCARCINOMA, Dose [Carcinogen]: 400 PPM IN DRINKING WATER FOR 12 WK (STUDY DURATION: 35 WK), Promoter: NONE","12/20 (60.0%), 7/21 (33.3%), 45%, not significant"
same,"tumour outcome (control, treated, inhibition, significance)","Carcinogen: N-NITROQUINOLINE-1-OXIDE, 56-57-5, Dose [Inhibitor]: 0, 250 PPM IN DIET FOR 7 WK BEGINNING 1 WK PRIOR TO START OF CARCINOGEN TREATMENT (STUDY DURATION: 32 WK), Route [Inhibitor]: ORAL, Species: RAT, Strain/Sex: F344\MALE, Target Tissue: Type of Lesion: TONGUE: CARCINOMA, Dose [Carcinogen]: 20 PPM IN DRINKING WATER FOR 5 WK, Promoter: NONE USED","9/15 (60%), 1/15 (7%), 88%, p=0.0025"
N[C@@H](Cc1ccc(O)cn1)C(=O)O,"tumour outcome (control, treated, inhibition, significance)","Carcinogen: 7,12-DIMETHYLBENZ[A]ANTHRACENE, 57-97-6, Dose [Inhibitor]: 0, 2 MG IN 50% ETHANOL 1/3 D BEGINNING 2 D POST CARCINOGEN TREATMENT (STUDY DURATION: 30 WK), Route [Inhibitor]: DERMAL, Species: MOUSE, Strain/Sex: TRANSGENIC/MALE, FEMALE, Target Tissue: Type of Lesion: SKIN: PAPILLOMA, Dose [Carcinogen]: 5 MG/KG/BW ONCE, Promoter: NONE USED","100%, 45%, 55%, not calculated"
same,"tumour outcome (control, treated, inhibition, significance)","Carcinogen: METHYLNITROSOUREA, 684-93-5, Dose [Inhibitor]: 0, 2 MG/MOUSE 1/2 D FOR 12 WK BEGINNING 1 D POST CARCINOGEN TREATMENT (STUDY DURATION: 12 WK), Route [Inhibitor]: INTRAPERITONEAL, Species: MOUSE, Strain/Sex: TRANSGENIC/MALE, FEMALE, Target Tissue: Type of Lesion: FORESTOMACH: PAPILLOMA, Dose [Carcinogen]: 50 MG/KG IN 10 MILLIMOLAR CITRATE BUFFER, Promoter: NONE USED","100%, 0%, 100%, not calculated"
COc1ccc2nc(S(=O)Cc3ncc(C)c(OC)c3C)[nH]c2c1 (centres undefined),"tumour outcome (control, treated, inhibition, significance)","Carcinogen: AZOXYMETHANE, 25843-45-2, Dose [Inhibitor]: 0, 40 UMOL/KG 1/D FOR 27 WK BEGINNING 6 WK PRIOR TO CARCINOGEN TREATMENT (STUDY DURATION: 27 WK), Route [Inhibitor]: GAVAGE, Species: RAT, Strain/Sex: SPRAGUE-DAWLEY/FEMALE, Target Tissue: Type of Lesion: COLON: TUMOR, Dose [Carcinogen]: 10 MG/KG 1/WK FOR 12 WK, Promoter: NONE USED","19/20 (95%), 12/19 (63%), 34%, p<0.02"
COC1=CC(=O)[C@]2(C=C1OC)OC[C@H]1Oc3c(ccc4c3C=CC(C)(C)O4)C(=O)[C@H]12,"tumour outcome (control, treated, inhibition, significance)","Carcinogen: 7,12-DIMETHYLBENZ[A]ANTHRACENE, 57-97-6, Dose [Inhibitor]: 0, 85 NMOL 2/WK BEGINNING 1 WK POST CARCINOGEN DOSE (STUDY DURATION: 20 WK), Route [Inhibitor]: DERMAL, Species: MOUSE, Strain/Sex: ICR/FEMALE, Target Tissue: Type of Lesion: SKIN: PAPILLOMA, Dose [Carcinogen]: 390 NMOL, Promoter: 12-O-TETRADECANOYLPHORBOL-13-ACETATE, 16561-29-8","100%, 20%, 80%, not calculated"
